ChEMBL document CHEMBL5247598 (Eur J Med Chem, 2022)
Activity calls are given as the source filed them. No cut-off for these calls is given here.

Key:
[1] = system: NCI/ADR-RES; assay: Induction of apoptosis in human NCI-ADR-RES cells assessed as necrotic cells at 8 uM incubated for 24 hrs by Annexin V-FITC and DAPI staining based flow cytometry (Rvb= 0.55 %); format: functional
[2] = system: NCI-ADR-RES; assay: Activation of PI3K/AKT signaling pathway in human NCI-ADR-RES cells assessed as increase in PI3K phosphorylation at 3 uM incubated for 24 to 48 hrs by Western blot analysis; format: cell-based; settings: filed as activator, time 24-48 hrs
[3] = system: NCI/ADR-RES; assay: Induction of apoptosis in human NCI-ADR-RES cells assessed as viable cells at 8 uM incubated for 24 hrs by Annexin V-FITC and DAPI staining based flow cytometry (Rvb= 97.9 %); format: functional; settings: read-out: Activity
[4] = system: NCI/ADR-RES; assay: Induction of apoptosis in human NCI-ADR-RES cells assessed as early apoptotic cells at 8 uM incubated for 48 hrs by Annexin V-FITC and DAPI staining based flow cytometry (Rvb= 0.89 %); format: functional
[5] = system: NCI-ADR-RES; assay: Activation of PI3K/AKT signaling pathway in human NCI-ADR-RES cells assessed as increase in AKT phosphorylation at 3 uM incubated for 24 to 48 hrs by Western blot analysis; format: cell-based; settings: filed as activator, time 24-48 hrs
[6] = system: NCI/ADR-RES; assay: Induction of apoptosis in human NCI-ADR-RES cells assessed as viable cells at 8 uM incubated for 48 hrs by Annexin V-FITC and DAPI staining based flow cytometry (Rvb= 97.9 %); format: functional; settings: read-out: Activity
[7] = system: NCI/ADR-RES; assay: Antiproliferative activity against human multidrug resistant NCI-ADR-RES cells overexpressing P-gp assessed as reduction in cell viability incubated for 48 hrs by MTT assay; format: functional, cell-based
[8] = system: NCI/ADR-RES; assay: Induction of apoptosis in human NCI-ADR-RES cells assessed as late apoptotic cells at 8 uM incubated for 48 hrs by Annexin V-FITC and DAPI staining based flow cytometry (Rvb= 0.66 %); format: functional
[9] = system: NCI/ADR-RES; assay: Induction of apoptosis in human NCI-ADR-RES cells assessed as late apoptotic cells at 8 uM incubated for 24 hrs by Annexin V-FITC and DAPI staining based flow cytometry (Rvb= 0.66 %); format: functional
[10] = system: NCI/ADR-RES; assay: Induction of apoptosis in human NCI-ADR-RES cells assessed as necrotic cells at 8 uM incubated for 48 hrs by Annexin V-FITC and DAPI staining based flow cytometry (Rvb= 0.55 %); format: functional
[11] = system: NCI/ADR-RES; assay: Induction of apoptosis in human NCI-ADR-RES cells assessed as early apoptotic cells at 8 uM incubated for 24 hrs by Annexin V-FITC and DAPI staining based flow cytometry (Rvb= 0.89 %); format: functional

In the case of `COc1cccc2c1C(=O)c1c(O)c3c(c(O)c1C2=O)C[C@@](O)(C(=O)CO)C[C@@H]3O[C@H]1C[C@H](N)[C@H](O)[C@H](C)O1` [DOXORUBICIN], the Activity [1] is reported as 0.39%, the Activity [2] is reported as “Active” and the viability at 8 µM [3] is reported as 98.3%. For the same compound, the Activity [4] was 1.78%, the Activity [5] was “Active” and the viability at 8 µM [6] was 92.8%. For the same compound, the IC50 [7] was 58.5 µM, the Activity [8] was 4.03% and the Activity [9] was 0.74%. The Activity [10] was 1.47% and the Activity [11] was 0.64%.
